pIC50: −log10 of the molar value. Calls of active or inactive are those of the source. The calls are words filed in the database; no cut-off is given here.
Key:
SK-HEP1 [1] = test: Antiproliferative activity against human SK-HEP1 cells assessed as inhibition of cell growth measured after 72 hrs by MTT assay; assay type: functional, cell-based
Huh-7 [2] = test: Antiinvasive activity in human Huh-7 cells assessed as reduction in number of invasive cells at 0.55 to 2.2 uM incubated for 24 hrs by transwell invasion assay; assay type: functional, cell-based; settings: dose 0.55-2.2 µM
Huh-7 [3] = test: Induction of apoptosis in human Huh-7 cells assessed as increase in proportion of late apoptosis at 0.9 to 8.1 uM incubated for 24 hrs by Annexin V-AbFluor 488/propidium iodide staining based flow cytometry analysis; assay type: functional, cell-based; settings: dose 0.9-8.1 µM
Huh-7 [4] = test: Induction of ROS production in human Huh-7 cells assessed as increase in intracellular ROS level at 0.9 to 8.1 uM incubated for 24 hrs by DCFH-DA staining based fluorescence assay; assay type: functional, cell-based; settings: dose 0.9-8.1 µM
SK-HEP1 [5] = test: Induction of apoptosis in human SK-HEP1 cells assessed as increase in cytochrome-C expression at 1.5 to 13.5 uM incubated for 48 hrs by Western blotting analysis; assay type: functional, cell-based; settings: dose 1.5-13.5 µM
[6] = biological target: Serine/threonine-protein kinase AKT (Homo sapiens) (UniProt P31751+Q9Y243+P31749); test: Inhibition of Akt signalling pathway in human SK-HEP1 cells assessed as inhibition of Akt phosphorylation at 1.5 to 13.5 uM measured after 48 hrs by Western blotting analysis; assay type: cell-based; settings: dose 1.5-13.5 µM
Serine/threonine-protein kinase AKT (Homo sapiens), sequence (P31749 whole entry, looked up): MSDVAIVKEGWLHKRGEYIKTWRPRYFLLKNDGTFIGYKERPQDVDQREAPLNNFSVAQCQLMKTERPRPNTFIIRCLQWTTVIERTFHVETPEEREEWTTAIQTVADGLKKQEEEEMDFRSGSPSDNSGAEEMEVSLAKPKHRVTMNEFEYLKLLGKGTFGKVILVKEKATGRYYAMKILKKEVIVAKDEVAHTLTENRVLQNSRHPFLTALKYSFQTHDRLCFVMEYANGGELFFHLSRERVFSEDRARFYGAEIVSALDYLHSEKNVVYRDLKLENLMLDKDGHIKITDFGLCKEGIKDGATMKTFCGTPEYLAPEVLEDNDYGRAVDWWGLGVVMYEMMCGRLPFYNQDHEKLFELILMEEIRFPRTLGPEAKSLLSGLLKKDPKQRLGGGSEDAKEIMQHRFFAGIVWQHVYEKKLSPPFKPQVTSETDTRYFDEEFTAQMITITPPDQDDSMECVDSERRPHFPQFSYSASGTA
Serine/threonine-protein kinase AKT (Homo sapiens), sequence (P31751 whole entry, looked up): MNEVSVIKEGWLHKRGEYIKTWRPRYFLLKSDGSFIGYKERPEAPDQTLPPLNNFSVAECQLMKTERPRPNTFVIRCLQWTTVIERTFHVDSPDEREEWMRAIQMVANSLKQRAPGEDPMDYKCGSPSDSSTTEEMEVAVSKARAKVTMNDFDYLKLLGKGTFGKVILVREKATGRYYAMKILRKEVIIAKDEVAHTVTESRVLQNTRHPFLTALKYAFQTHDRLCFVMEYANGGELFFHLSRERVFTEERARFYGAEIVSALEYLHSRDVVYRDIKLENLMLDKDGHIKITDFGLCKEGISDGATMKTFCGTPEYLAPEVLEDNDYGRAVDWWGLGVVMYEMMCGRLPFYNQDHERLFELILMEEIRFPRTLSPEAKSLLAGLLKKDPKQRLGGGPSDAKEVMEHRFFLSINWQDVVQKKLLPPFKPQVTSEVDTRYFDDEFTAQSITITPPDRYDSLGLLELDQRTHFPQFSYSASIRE
Serine/threonine-protein kinase AKT (Homo sapiens), sequence (Q9Y243 whole entry, looked up): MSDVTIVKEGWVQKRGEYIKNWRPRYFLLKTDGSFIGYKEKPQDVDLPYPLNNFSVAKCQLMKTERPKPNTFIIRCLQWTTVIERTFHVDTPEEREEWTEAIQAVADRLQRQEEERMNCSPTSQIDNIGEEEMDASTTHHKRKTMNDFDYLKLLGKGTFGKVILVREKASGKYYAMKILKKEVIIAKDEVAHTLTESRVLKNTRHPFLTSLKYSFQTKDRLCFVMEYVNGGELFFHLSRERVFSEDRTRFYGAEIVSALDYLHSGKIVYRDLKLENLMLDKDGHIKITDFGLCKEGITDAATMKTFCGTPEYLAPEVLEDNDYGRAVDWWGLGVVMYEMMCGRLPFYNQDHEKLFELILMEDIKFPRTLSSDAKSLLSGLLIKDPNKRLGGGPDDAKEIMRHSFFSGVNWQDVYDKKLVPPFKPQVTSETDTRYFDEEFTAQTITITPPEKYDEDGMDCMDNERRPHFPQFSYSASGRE

CC(=O)Oc1ccccc1/C=C/c1nccc2ccccc12
Activity (SK-HEP1 [1]): Dose-Dependent Effect
pIC50 (SK-HEP1 [1]; SK-HEP1, 72 h): 5.38
Activity (Huh-7 [2]): Active
Activity (Huh-7 [3]): Active
Activity (Huh-7 [4]): Active
Activity (SK-HEP1 [5]): Active
inhibition [6]: Active
